The source of these data is patent US20210147544A1, “METHODS AND COMPOSITIONS FOR TARGETED DELIVERY OF ACTIVE AGENTS AND IMMUNOMODULATORY AGENTS TO LYMPH NODES” (IMMUNOVACCINE TECHNOLOGIES INC., priority 2018, published 2021).

Series [1] deals with lymph node cells. The format is in vivo, C57BL/6 mice. The note with it: group E: 20 mg/kg/day CPA in drinking water for seven days before FP/PolyI:C composition; vs group F. As for the experimental part:
Pathogen free, C57BL/6 mice, 6-8 weeks of age, were purchased from Charles River Laboratories (St. Constant, PQ) and housed according to institutional guidelines with water and food ad libitum under filter controlled air circulation.
Mice in group A (n=5) were injected in the right flank with 50 microliters of the CPA composition containing 0.04 milligrams of CPA and injected in the left flank with 50 microliters of the FP/DNA based PolyI:C polynucleotide composition containing 10 micrograms of FP and 20 micrograms of DNA based polyl:C polynucleotide adjuvant.
Mice in group B (n=5) were injected in the right flank with 50 microliters of the CPA composition containing 0.4 milligrams of CPA and injected in the left flank with 50 microliters of the FP/DNA based PolyI:C polynucleotide composition containing 10 micrograms of FP and 20 micrograms of DNA based polyl:C polynucleotide adjuvant.
Mice in group C (n=5) were injected in the right flank with 50 microliters of the CPA/FP/PolyI:C composition containing 0.04 milligrams of CPA and 10 micrograms of FP and 20 micrograms of DNA based polyI:C polynucleotide adjuvant.
Mice in group D (n=5) were injected in the right flank with 50 microliters of the CPA/FP/PolyI:C composition containing 0.4 milligrams of CPA and 10 micrograms of FP and 20 micrograms of DNA based polyI:C polynucleotide adjuvant. […]

Series [2] is described as follows: Photographs of plasma, skin and draining lymph node after EVB injection. The format is in vivo, C57B1/6 mice. As for the experimental part: (§1) C57B1/6 mice (n=3 per time point) were injected subcutaneously on study day 0 with 1 mg of Evans Blue (EVB) dye formulated either in a composition of the invention (DPX, group 1) or in an aqueous solution (group 2). Control groups were injected subcutaneously with DPX not containing EVB (group 3) or not given an injection (group 4). DPX compositions were prepared according to the methods detailed in Example 1. The freeze-dried vial was reconstituted in Montanide® ISA 51 VG (SEPPIC, France). Cells were collected from the vaccine-draining lymph nodes (LN), blood, liver, and spleen from 2-3 mice of each group on study days 1, 2, 5, and 7, and the cells were stained to detect different cell populations by flow cytometry.

Series [3] can be described thus: Evans Blue (EVB) positive cells in LN, blood, liver, spleen by flow cytometry. The format is in vivo, C57B1/6 mice. As for the experimental part: as §1
EVB (MW 960.81 g/mol) is a membrane impermeant dye with high affinity for serum albumin that can penetrate into non-viable cells or be actively internalized by phagocytic cells, such as macrophages and dendritic cells.
A general note: Flow cytometry measures light scatter and fluorescence of single cells or particles in a stream.

Series [4] can be described thus: Body weights of C3 tumour mice during EPA treatment. The format is in vivo. The conditions noted are these: all with mCPA (PO), oral EPA given with DPX-FP. As for the experimental part:
Mice (n=8 per group) were implanted with C3 cancer cells on study day 0. Mice in all treatment groups were treated with 0.4 mg metronomic cyclophosphamide (mCPA) daily for seven days through drinking water starting on study day 7 and 21 (oral administration: PO). One group was untreated as a control. One treatment group was treated with epacadostat (EPA) through oral gavage 6 mg/day for five days starting on study day 14 for a total EPA dose of 30 mg over 5 days. Mice were treated with a composition of the invention (DPX) containing either FP alone (DPX-FP) or FP in combination with EPA (DPX-FP/EPA, 1 mg EPA). DPX was administered by subcutaneous injection to the treatment groups on study day 14 and 28, for a total EPA dose of 2mg over […] in the group receiving DPX-FP/EPA. The DPX compositions were prepared according to the methods detailed in Example 1. All DPX-FP and DPX-FP/EPA formulations contained 20 micrograms of DNA based PolyI:C polynucleotide adjuvant. The freeze-dried vials were reconstituted in 0.7 mL of Montanide® ISA 51 VG (SEPPIC, France) to obtain a clear solution (FIG. 1; Panel D).

Series [5] can be described thus: AlexaFluor488 (AF488) positive cells in LN, blood, liver, spleen by flow cytometry. The format is in vivo, C57B1/6 mice. As for the experimental part:
as §1, with “mice (n=2-3” for “mice (n=3”, “with 0.1” for “with 1”, “of AlexaFluor488 hydrazide (AF488)” for “of Evans Blue (EVB)”, “containing AF488” for “containing EVB”
AF488 (MW 773.91 g/mol) is a membrane impermeant fluorescent dye that can be actively internalized by phagocytic cells, such as macrophages and dendritic cells.

The mark [6] stands for this setting: 1 mg EVB s.c., days 1, 2, 5, 7, significance compared to group 3.
The mark [7] stands for this setting: by day 2, including CD3+ T cells.
Setting [8] is: 0.1 mg AF488 s.c., days 1, 2, 5, 7, significance compared to group 3.

On to `O=P1(N(CCCl)CCCl)NCCCO1` (centres unmarked) [CPA, N,N-bis(2-chloroethyl)-1,3,2-oxazaphosphinan-2-amine 2-oxide], for which, in series [1], the “total lymph node cell counts” value is “significantly lower cell counts compared to group F”.
On to `Cc1cc(-c2ccc(/N=N/c3ccc4c(S(=O)(=O)O)cc(S(=O)(=O)O)c(N)c4c3O)c(C)c2)ccc1/N=N/c1ccc2c(S(=O)(=O)O)cc(S(=O)(=O)O)c(N)c2c1O` [EVB in aqueous solution, Evans Blue], for which the “blue colouration of skin, injection site and draining LN (FIG. 13)” value in series [2] (1 mg EVB s.c.) is “turned blue”. For the same compound, in series [2] (days 1, 2, 5, and 7 after injection), the “colour of plasma (FIG. 12)” value is listed as “dark blue”. The “EVB+ CD11c+ dendritic cells in the liver” value in series [3] (1 mg EVB s.c.) was “a large number dendritic cells were EVB+ by day 2”. Besides, in series [3] (setting [6]), the “EVB+ CD11b+ cells in the LN (FIG. 10A)” value is recorded as “significant number of EVB^+ CD11b^+ cells on all days tested”, the “EVB+ CD11b+ cells in the blood (FIG. 10D)” value is given as “significant number of EVB^+ CD11b^+ cells on all days tested”, the “EVB+ CD11b+ cells in the liver (FIG. 10G)” value is reported as “significant number of EVB^+ CD11b^+ cells on all days tested” and the “EVB+ CD11b+ cells in the spleen (FIG. 10J)” value is given as “significant number of EVB^+ CD11b^+ cells on all days tested”. Also, in series [3] (setting [6]), the “EVB+ T cells in the LN (FIG. 10C)” value is “significant number of EVB^+ T cells on all days tested”, the “EVB+ T cells in the blood (FIG. 10F)” value was “significant number of EVB^+ T cells on all days tested”, the “EVB+ T cells in the liver (FIG. 10I)” value is “significant number of EVB^+ T cells on all days tested” and the “EVB+ T cells in the spleen (FIG. 10L)” value is reported as “significant number of EVB^+ T cells on all days tested”. Besides, in series [3] (setting [6]), the “EVB+ dendritic cells in the LN (FIG. 10B)” value is on record as “significant number of EVB^+ dendritic cells on all days tested”; the “EVB+ dendritic cells in the blood (FIG. 10E)” value is reported as “significant number of EVB^+dendritic cells on all days tested”; the “EVB+ dendritic cells in the liver (FIG. 10H)” value was “significant number of EVB^+ dendritic cells on days 2 and 7”; the “EVB+ dendritic cells in the spleen (FIG. 10K)” value is “significant number of EVB^+dendritic cells on all days tested”. Besides, in series [3] (1 mg EVB s.c., days 1 to 7), the “EVB release into and clearance from the LN (FIGS. 10A-C)” value was “had still not been cleared from the LN by day 7”; the “EVB release into and clearance from the blood (FIGS. 10D-F)” value is listed as “still not been cleared from the blood by day 7”; the “EVB release into and clearance from the spleen (FIGS. 10J-L)” value was “still saturated in CD11b+ macrophages and T cells by day 7”; the “saturation of cell types in the blood with EVB” value was “CD11b+ macrophages and CD3+ T cells that were still nearly saturated on day 7”. Also, the “macrophages and T cells EVB+ in the liver” value in series [3] (by day 1-2) was about 100%. In addition, the “cells EVB+ in the spleen” value in series [3] (by day 1-2, including CD3+ T cells) was about 100%. In series [3] (setting [7]), the “cells EVB+ in the LN” value is given as about 100% and the “cells EVB+ in the blood” value is on record as about 100%.
On to `NS(=O)(=O)NCCNc1nonc1C(=NO)Nc1ccc(F)c(Br)c1` [oral EPA (PO), epacadostat], for which the “weight loss during treatment (body weights)” value in series [4] is recorded as “significant weight loss during treatment”.
Turning to “AlexaFluor488 hydrazide [AF488 in aqueous solution]”, in series [5] (0.1 mg AF488 s.c.), the “AF488 release into the blood (FIGS. 11D-F)” value was “quickly peaked at day 1”; the “release of AF488 into the spleen (FIGS. 11G-I)” value is “rapid and significant release of AF488 into the spleen in all cell types”. For the same compound, in series [5] (setting [8]), the “AF488+ CD11b+ cells in the LN (FIG. 11A)” value is “significant number of AF488^+CD11b^+ cells on days 1 and 2”; the “AF488+ CD11b+ cells in the blood (FIG. 11D)” value is “significant number of AF488^+ CD11b^+ cells on days 1 and 2”; the “AF488+ T cells in the LN (FIG. 11C)” value was “significant number of AF488^+ T cells on day 1”; the “AF488+ T cells in the blood (FIG. 11F)” value is “significant number of AF488^+ T cells on days 1 and 2”. In addition, in series [5] (setting [8]), the “AF488+ T cells in the liver (FIG. 11I)” value is on record as “significant number of AF488^+ T cells on all days collected”; the “AF488+ dendritic cells in the LN (FIG. 11B)” value is reported as “significant number of AF488^+ dendritic cells on day 1”; the “AF488+ dendritic cells in the blood (FIG. 11E)” value is “significant number of AF488^+ dendritic cells on days 1 and 2”; the “AF488+ dendritic cells in the liver (FIG. 11H)” value is “significant number of AF488^+ dendritic cells on days 1, 2, and 5”. In series [5] (setting [8]), the “AF488+ monocytes in the liver (FIG. 11G)” value was “significant number of AF488^+ monocytes on days 1, 2, and 5”. Further, the “AF488 release into and clearance from the LN (FIGS. 11A-C)” value in series [5] (0.1 mg AF488 s.c., days 1 to 7) was “quickly peaked at day 1 and AF488 was cleared by day 5-7”. The “circulating CD11b+ cells being AF488+” value in series [5] (blood, days 1-2) is “over 70%”.
